According to patent publication US10669302B2, “Crystal form of fludarabine phosphate, preparation method therefor, and application thereof” (Zhejiang Hisun Pharmaceutical Co., Ltd., priority 2015, dated 2020):

What was measured:
[1] = Stability tests (sealed PE and aluminum foil bags, liquid chromatography); assay type: physicochemical; details: for Stability in words: under room temperature and refrigerated conditions, summary of Table 4
Description: The liquid chromatography test conditions involved in the present invention are: chromatographic column: SHIMADZU, VP-ODS, 4.6 mm×15 cm 5 μm or equivalent;
mobile phase A: 10 mM monopotassium phosphate (0.01 mol/l):methanol=47:3; detection wavelength: 260 nm; flow rate: 1.0 ml/min; injection volume: 10 μl.
Packaging condition: crystal form I and crystal form II of fludarabine phosphate were first sealed and packaged with PE bags respectively, and then sealed and packaged with aluminum foil bags outside, the samples were reserved at room temperature and refrigerated conditions, the samples were tested with the liquid chromatography. The test condition of the liquid chromatography is described in SUMMARY OF THE INVENTION section of this application.

[2] = Tests of dissolution rates (turbidimeter, purified water); assay type: physicochemical; parameters: Reading: unit not given here; details: for Solution state / Reading / Turbidity: 50 mg in 10 ml purified water; for Clarity achieved in purified water: in a short period of time, summary of Table 3; for Reading: turbidimeter
Description: The turbidimeter and the test conditions involved in the present invention are: turbidimeter model: MERCK TURBIQUANT 1500IR; operation method: the purified water was used as a zero point control, 50 mg of crystal form I of fludarabine phosphate and 50 mg of crystal form II of fludarabine phosphate were dissolved in 10 ml of purified water respectively as test samples, the specific test data can be seen in Table 3.
Tests of Dissolution Rates for Crystal Form I and Crystal Form II of Fludarabine Phosphate

[3] = before the samples were reserved
[4] = refrigerated (2-10° C.), humidity 75%, reserved for five months
[5] = refrigerated (2-10° C.), humidity 75%, reserved for four months
[6] = refrigerated (2-10° C.), humidity 75%, reserved for one month
[7] = refrigerated (2-10° C.), humidity 75%, reserved for six months
[8] = refrigerated (2-10° C.), humidity 75%, reserved for three months
[9] = refrigerated (2-10° C.), humidity 75%, reserved for two months
[10] = room temperature (10-30° C.), humidity 75%, reserved for five months
[11] = room temperature (10-30° C.), humidity 75%, reserved for four months
[12] = room temperature (10-30° C.), humidity 75%, reserved for one month
[13] = room temperature (10-30° C.), humidity 75%, reserved for six months
[14] = room temperature (10-30° C.), humidity 75%, reserved for three months
[15] = room temperature (10-30° C.), humidity 75%, reserved for two months
[16] = 10 s, listed as Cyrstal form II
[17] = 40 s, listed as Cyrstal form II

Liquid chromatography result of stability sample [1, 3] [%] | Liquid chromatography result of stability sample [1, 4] [%] | Liquid chromatography result of stability sample [1, 5] [%] | Liquid chromatography result of stability sample [1, 6] [%] | Liquid chromatography result of stability sample [1, 7] [%] | Liquid chromatography result of stability sample [1, 8] [%] | Liquid chromatography result of stability sample [1, 9] [%] | Liquid chromatography result of stability sample [1, 10] [%] | Liquid chromatography result of stability sample [1, 11] [%] | Liquid chromatography result of stability sample [1, 12] [%] | Liquid chromatography result of stability sample [1, 13] [%] | Liquid chromatography result of stability sample [1, 14] [%] | Liquid chromatography result of stability sample [1, 15] [%] | Stability in words [1] | Solution state ([2]; 70 s) | Solution state ([2]; 80 s) | Solution state ([2]; 90 s) | Solution state ([2]; 100 s) | Clarity achieved in purified water [2] | Structure (SMILES) | other results
99.685 | 99.685 | 99.685 | 99.685 | 99.685 | 99.685 | 99.685 | 99.684 | 99.684 | 99.685 | 99.684 | 99.685 | 99.685 | good stabilities | Clear | Clear | Clear | Clear | good clarity | Nc1nc(F)nc2c1ncn2[C@@H]1O[C@H](COP(=O)(O)O)[C@@H](O)[C@@H]1O [Crystal form I, 9-β-D-arabinofuranosyl-2-fluoroadenine-5′-phosphate] | Solution state ([2]; 5 s): Clear; Solution state ([2]; 10 s): Clear; Solution state ([2]; 20 s): Clear; Solution state ([2]; 30 s): Clear; Solution state ([2]; 40 s): Clear; Solution state ([2]; 50 s): Clear; Solution state ([2]; 60 s): Clear; Reading ([2]; 5 s): 2.2; Reading ([2]; 10 s): 1.75; Reading ([2]; 20 s): 1.75; Reading ([2]; 30 s): 1.75; Reading ([2]; 40 s): 1.75; Reading ([2]; 50 s): 1.75; Reading ([2]; 60 s): 1.75; Reading ([2]; 70 s): 1.75; Reading ([2]; 80 s): 1.75; Reading ([2]; 90 s): 1.75; Reading ([2]; 100 s): 1.75
99.677 | 99.677 | 99.677 | 99.677 | 99.677 | 99.677 | 99.677 | 99.663 | 99.663 | 99.673 | 99.663 | 99.667 | 99.668 | good stabilities | Clear | Clear | Clear | Clear | good clarity | Nc1nc(F)nc2c1ncn2[C@@H]1O[C@H](COP(=O)(O)O)[C@@H](O)[C@@H]1O [Crystal form II, 9-β-D-arabinofuranosyl-2-fluoroadenine-5′-phosphate] | Solution state ([2]; 5 s, listed as Cyrstal form II): Turbid; Turbidity ([2]; 5 s, listed as Cyrstal form II): Sample >1; Solution state [2, 16]: Turbid; Turbidity [2, 16]: Sample >1; Solution state ([2]; 20 s, listed as Cyrstal form II): Turbid; Solution state ([2]; 30 s, listed as Cyrstal form II): Turbid; Solution state [2, 17]: Turbid; Reading [2, 17]: 6.41; Reading ([2]; 50 s, listed as Cyrstal form II): 4.54; Reading ([2]; 60 s, listed as Cyrstal form II): 3.32; Reading ([2]; 70 s, listed as Cyrstal form II): 2.56; Reading ([2]; 80 s, listed as Cyrstal form II): 2.41; Reading ([2]; 90 s, listed as Cyrstal form II): 2.29; Reading ([2]; 100 s, listed as Cyrstal form II): 2.29
